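Five compound concentrations were applied to cells in 96-well plates for 48 hours; endpoints were derived by simple linear interpolation of the resulting dose-response curve. Abbreviation: GI50, concentration required for 50% inhibition of growth.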 The source made the active and inactive calls. Cut-off read from the data, not from the text of the source: active = GI50 up to about 1.1 µM and inactive = higher.
Tests used:
Experiment in all cases: DTP human tumour cell line panel, 48 h
T47D = tested on: T47D
OVCAR-3 = tested on: OVCAR-3
HCC 2998 = tested on: HCC 2998
ACHN = tested on: ACHN
A549 = tested on: A549
A498 = tested on: A498
SN12C = tested on: SN12C
MOLT-4 = tested on: MOLT-4
TK-10 = tested on: TK-10
MCF7 = tested on: MCF7
NCI-H226 = tested on: NCI-H226
SK-MEL-28 = tested on: SK-MEL-28
HOP-62 = tested on: HOP-62
UO-31 = tested on: UO-31
BT-549 = tested on: BT-549
CAKI-1 = tested on: CAKI-1
OVCAR-5 = tested on: OVCAR-5
IGROV-1 = tested on: IGROV-1
SW-620 = tested on: SW-620

| SMILES | GI50 (T47D) | GI50 (OVCAR-3) | GI50 (HCC 2998) | GI50 (ACHN) | GI50 (A549) | GI50 (A498) | GI50 (SN12C) | GI50 (MOLT-4) | GI50 (TK-10) | GI50 (MCF7) | GI50 (NCI-H226) | GI50 (SK-MEL-28) | GI50 (HOP-62) | GI50 (UO-31) | GI50 (BT-549) | GI50 (CAKI-1) | GI50 (OVCAR-5) | GI50 (IGROV-1) | GI50 (SW-620) |
| --- | --- | --- | --- | --- | --- | --- | --- | --- | --- | --- | --- | --- | --- | --- | --- | --- | --- | --- | --- |
| CCN(CC)c1ccc(/C=C2\CCc3ccc([N+](=O)[O-])cc3C2=O)cc1 | 4.55 µM (inactive) | 1.93 µM (inactive) | 10.1 µM (inactive) | 8.85 µM (inactive) | 4.58 µM (inactive) | 2.56 µM (inactive) | 2.99 µM (inactive) | 0.488 µM (active) | 2.86 µM (inactive) | 0.535 µM (active) | > 100 µM (inactive) | 3.46 µM (inactive) | 0.471 µM (active) | 7.46 µM (inactive) | > 100 µM (inactive) | > 26.6 µM (inactive) | > 100 µM (inactive) | 7.06 µM (inactive) | 0.297 µM (active) |
| COC(=O)C1=NN2c3ccccc3CN([C@@H](C)c3ccccc3)C(=O)[C@@H]2C1 | 14.1 µM (inactive) | 30.8 µM (inactive) | 48.2 µM (inactive) | 34 µM (inactive) | 31.4 µM (inactive) | 91.8 µM (inactive) | 56.1 µM (inactive) | 15 µM (inactive) | 50.7 µM (inactive) | 34.8 µM (inactive) | 54.1 µM (inactive) | 38.7 µM (inactive) | 57.7 µM (inactive) | 17.5 µM (inactive) | 24.6 µM (inactive) | 23.2 µM (inactive) | 52.1 µM (inactive) | 64.1 µM (inactive) | 87.3 µM (inactive) |
| Oc1c(C2=N[C@H]3CCCC[C@@H]3N2)ccc2ccccc12 | > 100 µM (inactive) | > 100 µM (inactive) | > 100 µM (inactive) | > 100 µM (inactive) |  | > 100 µM (inactive) | > 100 µM (inactive) | > 100 µM (inactive) | > 100 µM (inactive) | > 100 µM (inactive) | > 100 µM (inactive) | > 100 µM (inactive) | > 44.7 µM (inactive) | > 100 µM (inactive) | > 100 µM (inactive) | > 100 µM (inactive) | > 100 µM (inactive) | > 82 µM (inactive) | > 100 µM (inactive) |
| CCCc1nc(Cl)c(Cl)c(Cl)n1 | 17.5 µM (inactive) | 6.64 µM (inactive) | 0.556 µM (active) |  | 19.1 µM (inactive) | > 100 µM (inactive) | 19.6 µM (inactive) | 12.4 µM (inactive) | > 71.9 µM (inactive) | 16.1 µM (inactive) | 36.6 µM (inactive) | 56.5 µM (inactive) | 33.7 µM (inactive) | 2.71 µM (inactive) | 23.2 µM (inactive) | 10.7 µM (inactive) | 31.8 µM (inactive) | 17.4 µM (inactive) | 14.8 µM (inactive) |
| C=CCC(CNC(=O)OCc1ccccc1)O[Si](C)(C)C(C)(C)C (configuration not stated) | 22.9 µM (inactive) | 31.6 µM (inactive) | 39.5 µM (inactive) | 33.6 µM (inactive) | 30.1 µM (inactive) | 38.8 µM (inactive) | 31.2 µM (inactive) | 19.6 µM (inactive) | 74.5 µM (inactive) | 22.3 µM (inactive) | 25.9 µM (inactive) | 48 µM (inactive) | 38.5 µM (inactive) | 22.2 µM (inactive) | 55 µM (inactive) | 29.4 µM (inactive) | 26.3 µM (inactive) | 27.4 µM (inactive) | 38.1 µM (inactive) |
| CC(=N\N)/C(C)=N/N=C(C)/C(C)=N/N=C(C)/C(C)=N/N | > 100 µM (inactive) | > 100 µM (inactive) | > 100 µM (inactive) | > 100 µM (inactive) | > 100 µM (inactive) | > 100 µM (inactive) | > 100 µM (inactive) | 0.1 µM (active) | > 100 µM (inactive) | > 100 µM (inactive) | > 100 µM (inactive) | > 100 µM (inactive) | > 100 µM (inactive) | > 100 µM (inactive) | > 100 µM (inactive) | > 100 µM (inactive) | > 100 µM (inactive) | > 100 µM (inactive) | > 100 µM (inactive) |
| Cn1c2ccc(Cl)cc2c2ccc3c(c21)C(=O)C=CC3=O | > 10 µM (inactive) | > 10 µM (inactive) | > 10 µM (inactive) | > 10 µM (inactive) | > 10 µM (inactive) | > 10 µM (inactive) | > 10 µM (inactive) | 6.44 µM (inactive) | > 10 µM (inactive) | > 10 µM (inactive) | > 10 µM (inactive) | > 10 µM (inactive) | > 10 µM (inactive) |  | > 10 µM (inactive) | > 10 µM (inactive) | > 10 µM (inactive) | > 10 µM (inactive) | > 10 µM (inactive) |
| CC(=O)NC1C(OCc2ccccc2)OC(CO)C(O)C1OC(C)C(=O)NC(C)C(=O)NC(CCC(=O)NCCCNc1c2ccccc2nc2cccc([N+](=O)[O-])c12)C(N)=O (configuration not stated) | 16.8 µM (inactive) | 2.34 µM (inactive) | 1.14 µM (inactive) | 0.792 µM (active) | 1.43 µM (inactive) | 2.01 µM (inactive) | 1.02 µM (active) | 3.27 µM (inactive) | 2.94 µM (inactive) | 0.64 µM (active) | 2.79 µM (inactive) | 2.58 µM (inactive) | 1.91 µM (inactive) | 2.5 µM (inactive) | 2.74 µM (inactive) | 1.7 µM (inactive) | 2.24 µM (inactive) | 19.1 µM (inactive) | 0.229 µM (active) |
| CC(C)=CCC[C@@H](C)C1=C(Nc2ccccc2Cl)C(=O)C(C)=C(O)C1=O | 5.62 µM (inactive) | 3.36 µM (inactive) | 6.18 µM (inactive) | 2.26 µM (inactive) | 3.24 µM (inactive) | 5.42 µM (inactive) | 3.72 µM (inactive) | 2.04 µM (inactive) | 4.88 µM (inactive) | 7.69 µM (inactive) | 4.69 µM (inactive) | 11 µM (inactive) | 3.45 µM (inactive) | 2.89 µM (inactive) | 7.16 µM (inactive) | 4.06 µM (inactive) | 14.6 µM (inactive) | 2.45 µM (inactive) | 4.71 µM (inactive) |
| CSc1nc(=S)[nH]c2[nH]nc(C)c12 | > 100 µM (inactive) | > 100 µM (inactive) | > 100 µM (inactive) |  | > 100 µM (inactive) | 73.3 µM (inactive) | > 100 µM (inactive) | > 100 µM (inactive) | > 100 µM (inactive) | > 100 µM (inactive) | > 100 µM (inactive) | > 100 µM (inactive) |  | > 100 µM (inactive) | > 100 µM (inactive) | > 100 µM (inactive) | > 100 µM (inactive) |  | > 100 µM (inactive) |
| O=C1c2ccccc2NC2C(O)c3ccccc3N12 (configuration not stated) | 6.5 µM (inactive) | 37 µM (inactive) | 42.9 µM (inactive) | 40.8 µM (inactive) | 10.9 µM (inactive) | 20.6 µM (inactive) | 94.4 µM (inactive) | 21 µM (inactive) | 99.3 µM (inactive) | 40.2 µM (inactive) | > 100 µM (inactive) |  | 65 µM (inactive) | 40.8 µM (inactive) | 58.2 µM (inactive) | 34.8 µM (inactive) | 82.2 µM (inactive) | 72.8 µM (inactive) | 9.46 µM (inactive) |
| CCCCCCCCP(=O)(O)OP(=O)(O)OCC1OC(n2ccc(N)nc2=O)C(O)C1O (configuration not stated) | > 100 µM (inactive) | > 100 µM (inactive) | > 100 µM (inactive) | > 100 µM (inactive) | > 100 µM (inactive) | > 100 µM (inactive) | > 100 µM (inactive) | > 100 µM (inactive) | > 100 µM (inactive) | > 100 µM (inactive) | > 100 µM (inactive) | > 100 µM (inactive) | > 100 µM (inactive) | > 100 µM (inactive) | > 100 µM (inactive) | > 100 µM (inactive) | > 100 µM (inactive) | > 100 µM (inactive) | > 100 µM (inactive) |
| Cc1ccsc1/C(S)=N\c1ccc(Cl)c(/C=N/OC(C)(C)C)c1 | 23.6 µM (inactive) | 83.2 µM (inactive) | 18.5 µM (inactive) | 24.5 µM (inactive) | 30.9 µM (inactive) | 20.2 µM (inactive) | 27 µM (inactive) | 12.3 µM (inactive) | 16.6 µM (inactive) | 35.2 µM (inactive) | 24.7 µM (inactive) | 28.1 µM (inactive) | 51.5 µM (inactive) | 20.6 µM (inactive) | 22.9 µM (inactive) | 29 µM (inactive) | > 100 µM (inactive) | 28.9 µM (inactive) | 35.3 µM (inactive) |
| Oc1cccc(-c2nc3cc(F)ccc3s2)c1 | 0.225 µM (active) | 11.5 µM (inactive) | 9.02 µM (inactive) | 23.8 µM (inactive) | 23.6 µM (inactive) | 1.11 µM (active) | 23.4 µM (inactive) | 20.5 µM (inactive) | 12.4 µM (inactive) | 1.6 µM (inactive) | 9.46 µM (inactive) | 19.2 µM (inactive) |  | 14.5 µM (inactive) | 16.9 µM (inactive) | 15.1 µM (inactive) | 21.4 µM (inactive) | 2.34 µM (inactive) | 22 µM (inactive) |
| CC[C@](O)(CC(=O)O[C@H]1C(=O)O[C@@H]2C[C@H]3C(C)=CC(=O)[C@@H](O)[C@]3(C)[C@H]3[C@@]4(O)OC[C@]32[C@@H]1[C@@H](C)[C@H]4O)C(C)C | < 0.01 µM (active) | < 0.01 µM (active) | < 0.01 µM (active) | < 0.01 µM (active) | < 0.01 µM (active) | < 0.01 µM (active) | < 0.01 µM (active) | < 0.01 µM (active) | < 0.01 µM (active) | < 0.01 µM (active) | < 0.01 µM (active) | < 0.01 µM (active) | < 0.01 µM (active) | < 0.0122 µM (active) | < 0.01 µM (active) | < 0.01 µM (active) | < 0.01 µM (active) | < 0.01 µM (active) | < 0.01 µM (active) |

Source: ChEMBL document CHEMBL1201862, “PubChem BioAssay data set” (2004)
